Target: T1, human PAD4 (Homo sapiens, UniProt Q9UM07)
T1 construct: human PAD4 (NM_012387), A2-P663, was PCR amplified; His-SUMO (N, cleaved yes); made in house; host or cells: E. coli BL21(DE3)
Experiment: In vitro PAD4 BAEE biochemical assay
Settings: BAEE substrate 3 mM, 5 nM PAD4, 2 mM calcium chloride; geometric mean of multiple experiments
Procedure, shortened: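 Recombinant PAD4 (5 nM final) with 2 mM CaCl2 was preincubated with compound for 30 min at 25 °C in MOPS pH 7.6 buffer with DTT, then reacted with 3 mM BAEE for 2 h at 25 °C. Released ammonia was detected fluorimetrically with o-phthalaldehyde/DTT; IC50 from four-parameter fit, geometric mean of experiments.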

T1 sequence (Q9UM07 2-663): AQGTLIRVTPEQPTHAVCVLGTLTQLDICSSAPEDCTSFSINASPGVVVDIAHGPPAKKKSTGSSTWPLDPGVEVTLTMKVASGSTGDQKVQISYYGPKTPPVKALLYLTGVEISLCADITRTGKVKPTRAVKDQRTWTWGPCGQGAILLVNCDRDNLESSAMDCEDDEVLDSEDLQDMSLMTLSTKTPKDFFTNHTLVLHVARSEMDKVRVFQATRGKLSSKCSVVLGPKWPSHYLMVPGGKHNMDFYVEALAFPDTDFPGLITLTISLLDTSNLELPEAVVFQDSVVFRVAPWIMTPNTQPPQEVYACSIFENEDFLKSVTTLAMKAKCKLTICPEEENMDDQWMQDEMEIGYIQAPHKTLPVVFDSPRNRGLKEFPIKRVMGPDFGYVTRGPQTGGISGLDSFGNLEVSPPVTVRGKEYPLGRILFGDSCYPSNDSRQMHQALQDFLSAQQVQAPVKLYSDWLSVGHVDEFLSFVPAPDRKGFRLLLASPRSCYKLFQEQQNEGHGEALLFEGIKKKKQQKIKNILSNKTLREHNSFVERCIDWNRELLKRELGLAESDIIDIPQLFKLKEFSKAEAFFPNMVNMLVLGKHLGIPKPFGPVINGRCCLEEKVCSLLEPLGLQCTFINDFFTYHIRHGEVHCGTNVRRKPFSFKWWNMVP

IC50	Structure (SMILES)
150 nM	C[C@H]1NC(=O)C(C)(C)CCCCCCn2c(-c3nc4cc(C(=O)N5C[C@H](N)C[C@@H](F)C5)c(F)cc4n3C3CC3)cc3ccc1nc32 [Example 194, (11~{R})-17-[5-[(3~{R},5~{R})-3-amino-5-fluoro-piperidine-1-carbonyl]-1-cyclopropyl-6-fluoro-benzimidazol-2-yl]-8,8,11-trimethyl-1,10,19-triazatricyclo[10.5.2.0^{15,18}]nonadeca-12(19),13,15(18),16-tetraen-9-one]
36 nM	C[C@H]1NC(=O)[C@@H]2C[C@H]2CCCC(F)(F)Cn2c(-c3nc4cc(C(=O)N5C[C@H](N)[C@@H]6CC[C@H]5C6)c(F)cc4n3C3CC3)cc3ccc1nc32 [Example 455, (2~{R},5~{R},7~{R})-14-[5-[(1~{S},4~{R},5~{R})-4-amino-2-azabicyclo[3.2.1]octane-2-carbonyl]-1-cyclopropyl-6-fluoro-benzimidazol-2-yl]-11,11-difluoro-2-methyl-3,13,19-triazatetracyclo[11.5.2.0^{5,7}.0^{16,20}] icosa-1(19),14,16(20),17-tetraen-4-one]
49 nM	C[C@H]1NC(=O)c2ccc(C(F)(F)F)nc2CCCCCn2c(-c3nc4cc(C(=O)N5C[C@H](N)[C@@H]6CC[C@H]5C6)cc(F)c4n3C3CC3)cc3ccc1nc32 [Example 474, (2~{R})-17-[5-[(1~{S},4~{R},5~{R})-4-amino-2-azabicyclo[3.2.1]octane-2-carbonyl]-1-cyclopropyl-7-fluoro-benzimidazol-2-yl]-2-methyl-8-(trifluoromethyl)-3,9,16,22-tetrazatetracyclo[14.5.2.0^{5,10}.0^{19,23}] tricosa-1(22),5(10),6,8,17,19(23),20-heptaen-4-one]
28 nM	C[C@H]1NC(=O)[C@@H]2C[C@H]2CCCC(F)(F)Cn2c(-c3nc4cc(C(=O)N5C[C@H](N)[C@@H]6CC[C@H]5C6)cc(F)c4n3[C@H]3C[C@H]3F)cc3ccc1nc32 [Example 468, (2~{R},5~{R},7~{R})-14-[5-[(1~{S},4~{R},5~{R})-4-amino-2-azabicyclo[3.2.1]octane-2-carbonyl]-7-fluoro-1-[(1~{S},2~{R})-2-fluorocyclopropyl]benzimidazol-2-yl]-11,11-difluoro-2-methyl-3,13,19-triazatetracyclo[11.5.2.0^{5,7}.0^{16,20}] icosa-1(19),14,16(20),17-tetraen-4-one]
17 nM	C[C@H]1NC(=O)c2ccc(C(F)F)nc2CCCCCn2c(-c3nc4cc(C(=O)N5C[C@H](N)[C@@H]6CC[C@H]5C6)cc(F)c4n3[C@@H]3C[C@H]3F)cc3ccc1nc32 [Example 776, (2~{R})-17-[5-[(1~{S},4~{R}, 5~{R})-4-amino-2-azabicyclo [3.2.1]octane-2-carbonyl]-7-fluoro-1-[(1~{R},2~{R})-2-fluorocyclopropyl]benzimidazol-2-yl]-8-(difluoromethyl)-2-methyl-3,9,16,22-tetrazatetracyclo[14.5.2.0^ {5,10).0^{19,23}]tricosa-1(22),5(10),6,8,17,19(23),20-heptaen-4-one]
44 nM	COc1cc(C(=O)N2CC[C@@H](OC)[C@@H](N)C2)cc2nc(-c3cc4ccc5nc4n3CCCCCCC(c3ccccn3)C(=O)N[C@@H]5C)n(C)c12 (stereo partly shown) [Example 860, (11~{R})-17-[5-[(3~{S),4~{R})-3-amino-4-methoxy-piperidine-1-carbonyl]-7-methoxy-1-methyl-benzimidazol-2-yl]-11-methyl-8-(2-pyridyl)-1,10,19-triazatricyclo [10.5.2.0^{15,18}]nonadeca-12(19),13,15(18),16-tetraen-9-one]
72 nM	COc1cc(C(=O)N2C[C@H](N)[C@@H]3CC[C@H]2C3)cc2nc(-c3cc4ccc5nc4n3CCCCCc3c(F)cc(F)cc3C(=O)N[C@@H]5C)n(C)c12 [Example 894, (2~{R})-17-[5-[(1~{S},4~ {R},5~{R})-4-amino-2-azabicyclo[3.2.1]octane-2-carbonyl]-7-methoxy-1-methyl-benzimidazol-2-yl]-7,9-difluoro-2-methyl-3,16,22-triazatetracyclo [14.5.2.0^{5,10).0^{19,23}] tricosa-1(22),5(10),6,8,17, 19(23),20-heptaen-4-one]
10000 nM	COc1cc(C(=O)N2CCC[C@@H](N)C2)cc2nc(-c3cc4ccc5nc4n3CCCCCCNc3ncccc3-5)n(C)c12 [Example 50, [(3~{R})-3-amino-1-piperidyl]-[7-methoxy-1-methyl-2-(6,8,15,21-tetrazatetracyclo[13.5.2.0^{2,7}.0^{18,22}]docosa-1(21),2,4,6,16,18(22),19-heptaen-16-yl)benzimidazol-5-yl]methanone]
39 nM	COc1cc(C(=O)N2[C@H]3CC[C@@H]2[C@H](N)C3)cc2nc(-c3cc4ccc5cc4n3CCCCCC[C@](C)(OC)C(=O)N[C@@H]5C)n(C)c12 [Example 339, (8~{S),11~{R})-17-[5-[(1~{R},2~{R},4~{S})-2-amino-7-azabicyclo[2.2.1]heptane-7-carbonyl]-7-methoxy-1-methyl-benzimidazol-2-yl]-8-methoxy-8,11-dimethyl-1,10-diazatricyclo[10.5.2.0^{15,18}]nonadeca-12(19),13,15(18),16-tetraen-9-one]
32 nM	CO[C@@H]1CCN(C(=O)c2cc(F)c3c(c2)nc(-c2cc4ccc5nc4n2CCCCCc2ccnc(C(F)(F)F)c2C(=O)N[C@@H]5C)n3C2CC2)C[C@@H]1N [Example 836, (2~{R})-17-[5-[(3~{S}, 4~{R})-3-amino-4-methoxy-piperidine-1-carbonyl]-1-cyclopropyl-7-fluoro-benzimidazol-2-yl]-2-methyl-6-(trifluoromethyl)-3,7,16,22-tetrazatetracyclo[14.5.2.0^ {5,10}.0^{19,23}] tricosa-1(22),5(10), 6,8,17,19(23),20-heptaen-4-one]
737 nM	COc1cc(C(=O)N[C@@H]2CNC[C@H]3C[C@H]32)cc2nc(-c3cc4ccc5nc4n3CCCCCCC(C)(C)C(=O)N[C@@H]5C)n(C)c12 [Example 201, ~{N}-[(1~{S),5~{S},6~{R})-3-azabicyclo[4.1.0]heptan-5-yl]-7-methoxy-1-methyl-2-[(11~{R})-8,8,11-trimethyl-9-oxo-1,10,19-triazatricyclo[10.5.2.0^{15,18}]nonadeca-12(19),13,15(18),16-tetraen-17-yl]benzimidazole-5-carboxamide]
13 nM	COc1cc(C(=O)N2CCC[C@@H](N)C2)cc2nc(-c3cc4ccc5nc4n3CCCCCCCC(=O)N[C@@H]5C)n(C)c12 [Example 282, (11~{R})-17-[5-[(3~{R})-3-aminopiperidine-1-carbonyl]-7-methoxy-1-methyl-benzimidazol-2-yl]-11-methyl-1,10,19-triazatricyclo[10.5.2.0^{15,18}]nonadeca-12(19),13,15(18),16-tetraen-9-one]

Structure (SMILES)	IC50
COc1cc(C(=O)N2CCC[C@@H](N)C2)cc2nc(-c3cc4ccc5nc4n3CCCCCCCC(=O)NC5)n(C)c12 [Example 232, 17-[5-[(3~{R})-3-aminopiperidine-1-carbonyl]-7-methoxy-1-methyl-benzimidazol-2-yl]-1,10,19-triazatricyclo[10.5.2.0^{15,18}]nonadeca-12(19),13,15(18),16-tetraen-9-one]	549 nM

Source: patent US11976083B2, “Inhibitors of peptidylarginine deiminases” (Gilead Sciences, Inc., priority 2020, dated 2024)
